Earlier results as cited in US9694008B2, “Fast-dissolving oral film preparation comprising aripiprazole” (CMG Pharmaceutical CO., LTD., priority 2012, dated 2017).

Conditions: at 25° C.

O=C1CCc2ccc(OCCCCN3CCN(c4cccc(Cl)c4Cl)CC3)cc2N1 [aripiprazole, 7-{4-[4-(2,3-dichlorophenyl)piperazin-1-yl]butoxy}-3,4-dihydroquinolin-2(1H)-one]
Solubility in water: about 0.00001 w/v %
